According to paper PMC8157578 (Antioxidants, 2021):

Key:
HeLa cells [1] = assay: Auto-fluorescence of HeLa cells after incubation with compound (cell uptake); assay type: cell-based, human; details: HeLa cells incubated two hours, auto-fluorescence Ex ~330 nm, Em ~450 nm
Description: Subsequently, cells were washed and collected by centrifugation, the fluorescence of cells (105) was monitored by Thermo Scientific Varioskan Flash (Thermo Fisher scientific, USA) ***Significant difference from iron-overloaded group, p < 0.001.

HeLa cells [2] = assay: Immunofluorescence analysis of intracellular γ-H2AX generation in iron-overloaded HeLa cells (with H2O2); assay type: cell-based, human; details: Fe(II)-H2O2 alone 2.86±0.64
Procedure: The immortalized human cervical carcinoma HeLa cell line used in this study was obtained from the Cell Resource Center, Peking Union Medical College. The cell line was checked to be free of mycoplasma contamination by PCR and culture. Its species origin was confirmed with PCR. The identity of the cell line was authenticated with STR profiling (FBI, CODIS). HeLa cells were cultured in a DMEM medium (4 mM L-glutamine, 4500 mg/L glucose, and no sodium pyruvate) with 10% fetal bovine serum (FBS) and 1% penicillin–streptomycin at 37 °C under a 5% CO2 atmosphere.
HeLa cells (10^4/well) were loaded by incubation with 20 μM Fe(II) for 2 h at 37 °C. […] For a detailed experimental procedure, please refer to the Supplementary Materials and our previous report. The experiment was repeated three times. The observation of the fluorescence of γ-H2AX in HeLa cells was conducted with a confocal laser scanning microscope (CLSM) (Leica TCS SP). Thirty cells in each group were randomly selected in different microscopic fields for quantitative detection. In detail, each well was equally divided into nine fields and numbered sequentially from the top right corner. Four fields were randomly selected according to a random number table. Thirty cells were then randomly selected from these four fields. All images were analyzed blind regarding exposure parameters, which were coded by one person and read by another who was blinded to the code. The fluorescence intensity of the γ-H2AX signal on selected images was automatically analyzed using the Image-J software. The Statistical Product and Service Solutions (SPSS 21) program was employed to analyze the data through ANOVA. Significant difference from iron-overloaded group are marked with * p < 0.05, ** p < 0.01, and *** p < 0.001.
(§1) 2.1 Immunofluorescence analysis of intracellular γ-H2AX generation in Hela cells
(§2) Fixed cells were permeabilized with 0.25% Triton-X100 in PBS for 10 min and blocked in 10%
(§3) normal goat serum, 0.1% tween 20 in PBS for 1 hour. The cells were incubated with primary
(§4) monoclonal antibody, γ-H2AX (Ser139, 20E3, Rabbit, mAb #9718) (1:600) overnight at 4°C, and then
(§5) stained secondary antibodies, anti-rabbit Alexa-488 and anti-mouse (Cell Signaling Technology) for
(§6) 1 hour. After Hoechst 33342 (10 μg/mL) staining for 2 min, dishes were mounted in ProLong™ Gold
(§7) Antifade Mountant (Invitrogen™) and stored at 4°C in the dark before confocal laser-scanning by
(§8) Broadband Confocal Leica TCS SP5. The CLSM images were obtained with the following excitation
(§9) respectively. Cells were washed 3 times with PBS (200 μL/well) at intervals. […]

HeLa cells [3] = assay: Labile iron pool (LIP) determination with calcein-AM in iron-overloaded HeLa cells, flow cytometry; assay type: cell-based, human; details: 15 min
Procedure: HeLa cells (10^6/mL) were loaded by incubation with 20 μM Fe(II) for 2 h at 37 °C. Subsequently, cells were collected by centrifugation (1000 rpm for 5 min) and incubated with 0.5 μM calcein-AM for 15 min at 37 °C in a D’hanks buffer of pH 7.4. Cells were then washed twice by D’hanks buffer (pH 7.4) and incubated with or without CAPE and its analogues. The fluorescence was monitored by both flow cytometry (BD FACS Caliber) and a CLSM (Leica TCS SP). The experiment was repeated three times.
Figure 3 Effect of CAPE and its analogues on the LIP level in iron-overloaded cells, as measured by flow cytometry (A–D). HeLa cells were pretreated with 20 μM Fe(II) for 2 h and then incubated with calcein-AM. After 15 min, cells were washed and incubated with or without CAPE and its analogues for 15 min. The fluorescence intensity of cells was measured by flow cytometry. Significant differences from the iron-overloaded group are marked with * p < 0.05, ** p < 0.01, and *** p < 0.001. The experiment was repeated three times.

plasmid pBR322 DNA [4] = assay: Plasmid DNA strand breakage induced by Fe(III)–citrate/ascorbate/H2O2, agarose gel electrophoresis; assay type: biochemical; details: 20 μM Fe(III)–citrate, 10 μM ascorbate, 200 μM H2O2
Procedure: (§10) Plasmid DNA agarose gel electrophoresis was employed to investigate protective effect of CAPE and its analogues against DNA strand breakage induced by an iron-mediated system. For experimental procedure details, please refer to the Supplementary Materials.
Figure 4 Protective effect of CAPE and its analogues against Fe(III)–citrate–ascorbate–H2O2-induced DNA damage. […] The reaction mixture contained 20 μM Fe(III)–citrate, 10 μM ascorbate, and 200 μM H2O2, as well as the indicated concentrations of CAPE and its analogues. The experiments were repeated three times, and only typical images are presented. […]
The experiments were conducted via incubation of plasmid pBR322 DNA (5 μg/mL) at 37 °C for
30 min in Chelex-treated HEPES buffer (100 mM, pH 7.4) with the iron-containing systems, in the
absence or presence of the indicated concentrations of CAPE and its analogues. […]

[5] = 1-octanol/phosphate buffer partitioning, shake-flask method; assay type: physicochemical; details: 1-octanol / 100 mM phosphate buffer pH 7.4, shake-flask
plasmid pBR322 DNA [6] = assay: Plasmid DNA strand breakage induced by Fe(II)–H2O2, agarose gel electrophoresis; assay type: biochemical; details: ratio-dependent
Procedure: as §10, §1, §2, §3, §4, §5, §6, §7, §8, §9
ESR spectra were recorded at room temperature in a Bruker ESR 300 spectrometer. […]
The consumption of O2 was measured by Orion 3 dissolved oxygen meter (Thermo Scientific, […]
Corona Needle current was 3000 nA. The size of data points was recorded in 4 M format. […]

[7] = Cyclic voltammetry of Fe(III) chelated by ligand; assay type: physicochemical; details: 100 mM PB pH 7.4, SCE reference, 2 mV/s; Fe(III) alone approximately −0.65 V
Procedure: CV was performed in 100 mM PB (pH 7.4) on a Princeton Applied Research (VersaSTAT3) potentiostat with a Pt wire as the counter electrode, a saturated calomel electrode (SCE) as the reference electrode, and a glassy carbon electrode (5 mm in diameter) as the working electrode. The scan rate was 2 mV/s.

[8] = ESR spin-trapping (DMPO) of •OH generated by Fe(III)–citrate–ascorbate–H2O2; assay type: biochemical; details: 100 μM Fe(III)–citrate, 100 μM ascorbate, 1 mM H2O2
Procedure: The basic system used in this study consisted of Fe(III)/Fe(II), ascorbate, H2O2, and the spin trapping agent DMPO (100 mM) in 20 mM HEPES (pH 7.4) with or without CAPE and its analogues.
The reaction mixture contained 100 μM Fe(III)–citrate, 100 μM ascorbate, and 1 mM H2O2, as well as the indicated concentrations of CAPE and its analogues. The experiments were repeated three times, and only typical spectra are presented.
2.3 Electron spin resonance (ESR) spin-trapping studies
spectrometer parameters were as follows: scan range, 100 G; field set, 3470 G; time constant, 200 ms;
scan time, 100 s; modulation amplitude, 1.0 G; modulation frequency, 100 kHz; receiver gain,

HeLa cells [9] = assay: Labile iron pool (LIP) determination with calcein-AM in iron-overloaded HeLa cells, flow cytometry; assay type: cell-based, human; details: 50 μM compound alone, no iron

SMILES: O=C(/C=C/c1ccc(O)c(O)c1)OCCc1ccccc1 [CAPE, Caffeic acid phenethyl ester]
- Fluorescence inside the cells after incubation (crossing the cell membrane), in words (HeLa cells [1]): significantly increase
- Fluorescence intensity of γ-H2AX (HeLa cells [2]; Fe(II)-H2O2 + 2 μM compound): 3.07±0.54 Fold of Control
- Fluorescence intensity of γ-H2AX (HeLa cells [2]; Fe(II)-H2O2 + 10 μM compound): 2.71±0.32 Fold of Control
- Fluorescence intensity of γ-H2AX (HeLa cells [2]; Fe(II)-H2O2 + 20 μM compound): 1.66±0.46 Fold of Control
- Fluorescence intensity of γ-H2AX (HeLa cells [2]; Fe(II)-H2O2 + 50 μM compound): 1.26±0.23 Fold of Control
- Fluorescence intensity of calcein-AM (LIP level) (HeLa cells [3]; 20 μM Fe(II) + 2 μM compound, Fe(II) alone 0.64±0.04): 0.65±0.00 Fold of Control
- Fluorescence intensity of calcein-AM (LIP level) (HeLa cells [3]; 20 μM Fe(II) + 20 μM compound, Fe(II) alone 0.64±0.04): 0.73±0.02 Fold of Control
- Fluorescence intensity of calcein-AM (LIP level) (HeLa cells [3]; 20 μM Fe(II) + 50 μM compound, Fe(II) alone 0.63-0.64): 0.89±0.04 Fold of Control
- Protective effect against Fe(III)–citrate–ascorbate–H2O2-induced DNA damage, in words (plasmid pBR322 DNA [4]): significantly inhibited
- Concentration range with the stated inhibition of Fe(III)-citrate-Vc-H2O2 induced DNA damage (plasmid pBR322 DNA [4]; CAPE significantly, CA slightly): 40 to 200 µM
- LogKow [5]: 2.01 ± 0.02
- Inhibition of Fe(II)–H2O2-induced DNA strand breaks, in words (plasmid pBR322 DNA [6]): significantly inhibited
- Reduction potential of Fe(III) chelated by compound [7]: −1.00 V
- Inhibitory effect against Fe(III)-citrate-Vc-H2O2 induced •OH generation, in words [8]: completely inhibited
- Concentration with the stated inhibition of Fe(III)-citrate-Vc-H2O2 induced •OH generation ([8]; CAPE completely, CA significantly): 200 µM
- Fluorescence intensity of calcein-AM (LIP level) (HeLa cells [9]): 0.97±0.03 Fold of Control
